Test results published in publication PMC9322406, “Broad‐range metalloprotease profiling in plants uncovers immunity provided by defence‐related metalloenzyme” (The New Phytologist, 2022).

Key:
Assay in all cases: competition with DK-01 photoaffinity labelling, in-gel fluorescence
Format in all cases: biochemical
Settings in all cases: 200 uM inhibitor preincubated, 10 uM DK-01; leaf extract; band assigned by knockout
TOP1 = target: T1, TOP1 (Arabidopsis thaliana, UniProt Q94AM1)
T1 construct: gene OOP; assigned by knockout lines
T1 sequence (Q94AM1 83-791): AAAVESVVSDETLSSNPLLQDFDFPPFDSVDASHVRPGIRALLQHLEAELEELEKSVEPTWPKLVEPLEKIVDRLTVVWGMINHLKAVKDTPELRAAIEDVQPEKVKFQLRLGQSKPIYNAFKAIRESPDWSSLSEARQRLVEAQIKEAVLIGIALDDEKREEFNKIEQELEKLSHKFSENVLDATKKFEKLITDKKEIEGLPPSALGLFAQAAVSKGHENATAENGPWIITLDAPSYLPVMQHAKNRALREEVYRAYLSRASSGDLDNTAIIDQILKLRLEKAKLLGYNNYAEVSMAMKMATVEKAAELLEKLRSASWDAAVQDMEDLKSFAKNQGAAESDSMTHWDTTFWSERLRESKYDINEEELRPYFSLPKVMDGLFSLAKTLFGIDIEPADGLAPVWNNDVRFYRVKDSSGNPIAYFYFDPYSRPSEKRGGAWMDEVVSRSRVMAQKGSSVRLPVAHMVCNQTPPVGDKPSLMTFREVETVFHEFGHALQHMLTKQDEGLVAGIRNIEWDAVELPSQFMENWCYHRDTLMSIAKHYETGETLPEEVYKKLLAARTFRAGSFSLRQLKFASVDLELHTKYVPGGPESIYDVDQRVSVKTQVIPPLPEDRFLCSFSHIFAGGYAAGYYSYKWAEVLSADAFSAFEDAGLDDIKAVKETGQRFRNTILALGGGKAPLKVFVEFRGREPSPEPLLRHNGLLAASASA

PREP1 = target: T2, PREP1 (Arabidopsis thaliana, UniProt Q9LJL3)
T2 construct: assigned by knockout lines; locus printed At3g18170, probably a misprint for At3g19170
T2 sequence (Q9LJL3 86-1080): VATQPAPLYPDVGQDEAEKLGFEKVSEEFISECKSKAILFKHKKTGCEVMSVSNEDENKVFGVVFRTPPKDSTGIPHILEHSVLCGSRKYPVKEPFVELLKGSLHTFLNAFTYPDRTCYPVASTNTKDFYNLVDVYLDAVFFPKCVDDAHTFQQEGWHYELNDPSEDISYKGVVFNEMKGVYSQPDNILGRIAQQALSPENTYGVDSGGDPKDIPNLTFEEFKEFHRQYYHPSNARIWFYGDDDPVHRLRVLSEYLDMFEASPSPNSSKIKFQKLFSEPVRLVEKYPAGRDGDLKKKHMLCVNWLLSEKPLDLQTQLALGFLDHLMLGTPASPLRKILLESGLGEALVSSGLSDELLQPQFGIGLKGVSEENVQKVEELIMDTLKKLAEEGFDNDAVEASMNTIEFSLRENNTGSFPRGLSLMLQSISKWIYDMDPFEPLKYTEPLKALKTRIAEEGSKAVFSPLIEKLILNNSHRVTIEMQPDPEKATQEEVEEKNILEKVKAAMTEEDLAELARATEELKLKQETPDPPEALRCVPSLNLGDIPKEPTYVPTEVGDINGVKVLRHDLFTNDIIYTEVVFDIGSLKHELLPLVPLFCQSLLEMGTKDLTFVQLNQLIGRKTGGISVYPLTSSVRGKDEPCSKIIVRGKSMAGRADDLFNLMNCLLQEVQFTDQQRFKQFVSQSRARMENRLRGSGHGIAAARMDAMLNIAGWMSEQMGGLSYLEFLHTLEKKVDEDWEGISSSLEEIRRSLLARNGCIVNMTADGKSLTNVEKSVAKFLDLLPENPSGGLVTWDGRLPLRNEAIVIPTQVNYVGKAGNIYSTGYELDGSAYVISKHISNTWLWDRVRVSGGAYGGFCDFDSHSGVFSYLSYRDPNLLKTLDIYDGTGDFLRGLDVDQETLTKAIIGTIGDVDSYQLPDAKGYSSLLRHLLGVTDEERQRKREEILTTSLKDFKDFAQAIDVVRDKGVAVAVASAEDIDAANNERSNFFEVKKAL

APM1 = target: T3, APM1 (Arabidopsis thaliana, UniProt Q8VZH2)
T3 construct: assigned by mutant lines
T3 sequence (Q8VZH2 1-879): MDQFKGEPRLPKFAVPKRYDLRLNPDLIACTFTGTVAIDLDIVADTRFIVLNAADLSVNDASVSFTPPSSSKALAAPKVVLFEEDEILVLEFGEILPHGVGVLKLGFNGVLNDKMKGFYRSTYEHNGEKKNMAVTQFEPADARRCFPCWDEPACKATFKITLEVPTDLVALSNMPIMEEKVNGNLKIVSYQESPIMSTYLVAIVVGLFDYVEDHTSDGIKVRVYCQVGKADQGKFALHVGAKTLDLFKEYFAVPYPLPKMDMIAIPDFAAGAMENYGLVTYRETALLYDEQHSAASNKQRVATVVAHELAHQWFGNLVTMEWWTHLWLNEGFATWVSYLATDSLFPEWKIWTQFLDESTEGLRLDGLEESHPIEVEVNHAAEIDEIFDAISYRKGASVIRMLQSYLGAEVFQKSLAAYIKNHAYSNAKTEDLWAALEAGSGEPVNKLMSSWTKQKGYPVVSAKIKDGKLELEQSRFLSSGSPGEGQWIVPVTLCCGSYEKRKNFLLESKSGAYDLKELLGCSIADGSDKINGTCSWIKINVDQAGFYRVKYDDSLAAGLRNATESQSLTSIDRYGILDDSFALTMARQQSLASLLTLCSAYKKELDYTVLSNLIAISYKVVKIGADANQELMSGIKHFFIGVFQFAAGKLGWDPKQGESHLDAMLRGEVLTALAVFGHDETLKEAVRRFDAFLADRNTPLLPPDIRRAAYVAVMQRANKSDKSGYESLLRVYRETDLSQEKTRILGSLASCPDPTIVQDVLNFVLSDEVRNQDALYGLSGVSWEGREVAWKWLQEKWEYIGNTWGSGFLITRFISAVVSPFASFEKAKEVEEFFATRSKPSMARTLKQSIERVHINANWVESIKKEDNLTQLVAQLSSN

Structure (SMILES) | competition with DK-01 photoaffinity labelling, in-gel fluorescence (TOP1) | competition with DK-01 photoaffinity labelling, in-gel fluorescence (PREP1) | competition with DK-01 photoaffinity labelling, in-gel fluorescence (APM1)
CCCCC[C@H](CC(=O)NO)C(=O)N[C@H](C(=O)N1CCC[C@H]1CO)C(C)C [actinonin] | TOP1 labelling is actinonin‐sensitive and requires a neutral pH | PREP1 is actinonin/ilomastat‐sensitive | APM1 is marimastat/actinonin‐sensitive and active at pH5 and above
CNC(=O)[C@@H](NC(=O)[C@H](CC(C)C)[C@H](O)C(=O)NO)C(C)(C)C [marimastat] |  |  | APM1 is marimastat/actinonin‐sensitive and active at pH5 and above
CNC(=O)[C@H](Cc1c[nH]c2ccccc12)NC(=O)[C@@H](CC(=O)NO)CC(C)C [ilomastat] |  | PREP1 is actinonin/ilomastat‐sensitive | 
